Experimental data published in a compilation of properties of binary mixtures (doi:10.1021/je901058s).

Assay: xn = mol fraction of the nth substance listed
Settings: 101 kPa

CCCCCCCCn1cc[n+](C)c1.O=[N+]([O-])[O-] + CCO
viscosity [mPa·s]
Settings	283.15 K	288.15 K	293.15 K	298.15 K	303.15 K	308.15 K	313.15 K	318.15 K	323.15 K	328.15 K
x2 = 0.128	970	660	460	333	246	185	143	–	81.4	–
x2 = 0.266	380	266	198	150	116	89.1	68.9	55.9	45.9	32
x2 = 0.357	216	–	124	97	73.4	58.4	48.3	–	33.3	–
x2 = 0.455	102	76.2	–	47.5	38.3	31.2	25.8	–	18.59	14.08
x2 = 0.554	–	38.6	31.5	26.1	–	18.4	15.71	13.53	11.78	–
x2 = 0.662	24.8	20.62	17.19	14.52	12.44	10.83	9.55	8.69	7.83	6.2
x2 = 0.767	11.64	9.86	–	–	–	5.72	–	4.46	3.99	3.27
x2 = 0.868	5.09	–	3.97	3.49	3.13	2.8	2.53	2.3	2.1	1.77
